System: 422866-222-R5-J1-PDC complex spheroid viability
Assay: Anticancer human tumor 422866-222-R5-J1-PDC patient-derived pancreatic adenocarcinoma cell line growth inhibition [POLQ]
Conditions: for IC50: curve of first compound; for viability, T/C: stronger effect = lower value
Experimental: Multicellular complex tumor spheroid response to Polymerase (POL) inhibitors (novobiocin, ART-558, RP6685) in combination with a variety of drugs and investigational agents in selected tumor cell lines
The POL inhibitors (novobiocin, ART-558, and RP6685) were evaluated both individually and in combination with standard of care and investigational anticancer small molecules within a complex spheroid model of solid tumors. . Complex spheroids include a stromal component modeled by human endothelial cells (HUVEC) and fibroblasts modeled by human mesenchymal stem cells (MSCs). The concentration ranges selected for each drug and investigational agent were based upon clinically achievable concentrations if the clinical Cmax of the agent was known.
Compounds. The drugs and investigational agents: novobiocin (NSC847541), ART-558 (NSC835418), RP-6685 (NSC848927), peposertib (NSC802822), ceralasertib (NSC780249), elimusertib (NSC800525), camonsertib (NSC841442), AZD-1390 (NSC803789), olaparib (NSC753686), talazoparib (NSC767125), rucaparib (NSC756644), sotorasib (NSC818433), MRTX-1133 (NSC836407), SN-38 (NSC673596), topotecan (NSC609699), epotoside (NSC141540), doxorubicin (NSC123127), gemcitabine (NSC613327), 5-fluorouracil (NSC19893), paclitaxel (NSC125973), vemurafenib (NSC761431), MSA-2 (NSC828583), SN-011 (NSC837082), adavosertib (NSC754352), prexasertib (NSC758257), carboplatin (NSC241240) and oxaliplatin (NSC266046), were obtained from the National Cancer Institute (NCI) Developmental Therapeutics Program Chemical Repository (21). The FDA-approved anticancer drug set is available from the Developmental Therapeutics Program at https://dtp.cancer.gov/organization/dscb/obtaining/. […] The stock solutions were prepared in dimethyl sulfoxide (DMSO, Sigma-Aldrich, St. Louis, MO, cat. D2650), except for the platinum compounds which were prepared in saline (Quality Biological, Gaithersburg, MD, cat. 114-055-101), at 800-fold the tested concentration and stored at -70 degrees C prior to their use. All drugs and investigational agents were tested over a range starting from a high concentration at or near the clinical Cmax and decreasing in half-log increments. If the clinical Cmax for an agent had not been determined, the highest concentration tested was 10 microM, except for SN-38, which was tested at a high concentration of 1 microM.
Cell Culture. All cells were maintained in an incubator at 37 degrees C and 5% CO2 with 95% humidity. The PDC lines were cultured according to standard operating procedures established by the NCI PDMR (https://pdmr.cancer.gov). Table 3 of the manuscript, lists the cell lines along with the number of the three cell types plated to form the mct-spheroids and media for tumor cell growth. After thawing, all PDC lines, except 997537-175-T-J1-PDC and 415267-285-R-J2-PDC, were cultured in Matrigel-coated flasks prepared with a working solution of 1X Ham's F-12 nutrient mix, without supplementation (Thermo Fisher Scientific, cat. 11765054), 100 U/mL penicillin-streptomycin (Thermo Fisher Scientific, cat. 15140122), and 2.5% Matrigel (Corning Inc., Corning, NY, cat. 354248) for the first three passages. The two PDC lines 997537-175-T-J1-PDC and 415267-285-R-J2-PDC were cultured on uncoated flasks. The 857933-349-R-J2-PDC line was cultured in 6C/Colon 1B media containing advanced DMEM/F-12 (Thermo Fisher Scientific, cat. 12634028), 10 mM HEPES (Thermo Fisher Scientific, cat. 15630080), 1X GlutaMAX supplement (Thermo Fisher Scientific, cat. 35050061), 0.1 mg/mL primocin (InvivoGen, San Diego, CA, cat. ant-pm-2), 10% defined fetal bovine serum, heat inactivated (HyClone Laboratories Inc., Logan, UT, cat. SH30070.03HI), 50% L-WRN conditioned media (ATCC, cat. CRL-3276), 1.25 mM N-Acetyl-L-cysteine (Sigma-Aldrich, cat. A9165), 10 mM nicotinamide (Sigma-Aldrich, cat. N0636), 1X B-27 supplement (Thermo Fisher Scientific, cat. 17504044), 1X N-2 supplement (Thermo Fisher Scientific, cat. […]

[1] = second compound 0.0316 µM, first compound 0.0316 µM
[2] = second compound 0.0316 µM, first compound 0.1 µM
[3] = second compound 0.0316 µM, first compound 0.316 µM
[4] = second compound 0.0316 µM, first compound 1 µM
[5] = second compound 0.0316 µM, first compound 3.16 µM
[6] = second compound 0.0316 µM, first compound 10 µM
[7] = second compound 0.1 µM, first compound 0.0316 µM
[8] = second compound 0.1 µM, first compound 0.1 µM
[9] = second compound 0.1 µM, first compound 0.316 µM
[10] = second compound 0.1 µM, first compound 1 µM
[11] = second compound 0.1 µM, first compound 3.16 µM
[12] = second compound 0.1 µM, first compound 10 µM
[13] = second compound 0.316 µM, first compound 0.0316 µM
[14] = second compound 0.316 µM, first compound 0.1 µM
[15] = second compound 0.316 µM, first compound 0.316 µM
[16] = second compound 0.316 µM, first compound 1 µM
[17] = second compound 0.316 µM, first compound 3.16 µM
[18] = second compound 0.316 µM, first compound 10 µM
[19] = second compound 1 µM, first compound 0.0316 µM
[20] = second compound 1 µM, first compound 0.1 µM
[21] = second compound 1 µM, first compound 0.316 µM
[22] = second compound 1 µM, first compound 1 µM
[23] = second compound 1 µM, first compound 3.16 µM
[24] = second compound 1 µM, first compound 10 µM
[25] = second compound 3.16 µM, first compound 0.0316 µM
[26] = second compound 3.16 µM, first compound 0.1 µM
[27] = second compound 3.16 µM, first compound 0.316 µM
[28] = second compound 3.16 µM, first compound 1 µM
[29] = second compound 3.16 µM, first compound 3.16 µM
[30] = second compound 3.16 µM, first compound 10 µM
[31] = second compound 10 µM, first compound 0.0316 µM
[32] = second compound 10 µM, first compound 0.1 µM
[33] = second compound 10 µM, first compound 0.316 µM
[34] = second compound 10 µM, first compound 1 µM
[35] = second compound 10 µM, first compound 3.16 µM
[36] = second compound 10 µM, first compound 10 µM
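Further: spheroids exposed to compounds for one week before readout.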
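Wherever viability, T/C is given: percent of DMSO vehicle wells luminescence so 100% = untreated viability.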

C#Cc1c(F)ccc2cc(O)cc(-c3ncc4c(N5CC6CCC(C5)N6)nc(OCC56CCCN5CC(F)C6)nc4c3F)c12 (stereo not drawn) + Cc1cccc(N(C)C(=O)C2C(O)CCN2c2nc(C)cc(C(F)(F)F)c2C#N)c1
IC50 (second compound 0.0316 µM): 0.758 µM
IC50 (second compound 0.1 µM): 1.09 µM
IC50 (second compound 0.316 µM): 0.762 µM
IC50 (second compound 1 µM): 0.712 µM
IC50 (second compound 3.16 µM): 0.48 µM
IC50 (second compound 10 µM): 0.465 µM
viability, T/C [1]: 104%
viability, T/C [2]: 79.8%
viability, T/C [3]: 65.2%
viability, T/C [4]: 45.5%
viability, T/C [5]: 33%
viability, T/C [6]: 28.7%
viability, T/C [7]: 92.1%
viability, T/C [8]: 87.2%
viability, T/C [9]: 65.7%
viability, T/C [10]: 54.6%
viability, T/C [11]: 33.3%
viability, T/C [12]: 25.9%
viability, T/C [13]: 102%
viability, T/C [14]: 80%
viability, T/C [15]: 67.6%
viability, T/C [16]: 46%
viability, T/C [17]: 29.3%
viability, T/C [18]: 29.1%
viability, T/C [19]: 95.8%
viability, T/C [20]: 96.9%
viability, T/C [21]: 68.1%
viability, T/C [22]: 43.7%
viability, T/C [23]: 33.5%
viability, T/C [24]: 32%
viability, T/C [25]: 92.8%
viability, T/C [26]: 74.4%
viability, T/C [27]: 57%
viability, T/C [28]: 40.8%
viability, T/C [29]: 30.3%
viability, T/C [30]: 33.9%
viability, T/C [31]: 84.3%
viability, T/C [32]: 69.2%
viability, T/C [33]: 56.1%
viability, T/C [34]: 39.9%
viability, T/C [35]: 32.3%
viability, T/C [36]: 27.6%

CC1COCCN1c1cc(C2(O)CC3CCC(C2)O3)c2cnn(-c3ccn[nH]3)c2n1 (stereo not drawn) + Cc1cccc(N(C)C(=O)C2C(O)CCN2c2nc(C)cc(C(F)(F)F)c2C#N)c1
IC50 (second compound 0.0316 µM): > 10 µM
IC50 (second compound 0.1 µM): > 10 µM
IC50 (second compound 0.316 µM): > 10 µM
IC50 (second compound 1 µM): > 10 µM
IC50 (second compound 3.16 µM): 0.0316 µM
IC50 (second compound 10 µM): > 10 µM
viability, T/C [1]: 87.5%
viability, T/C [2]: 42.3%
viability, T/C [3]: 44.2%
viability, T/C [4]: 85.3%
viability, T/C [5]: 70.9%
viability, T/C [6]: 73.2%
viability, T/C [7]: 75.1%
viability, T/C [8]: 55.5%
viability, T/C [9]: 52.2%
viability, T/C [10]: 79.2%
viability, T/C [11]: 68.8%
viability, T/C [12]: 72.2%
viability, T/C [13]: 72.5%
viability, T/C [14]: 40.9%
viability, T/C [15]: 52.5%
viability, T/C [16]: 70.3%
viability, T/C [17]: 80.7%
viability, T/C [18]: 74.7%
viability, T/C [19]: 77.8%
viability, T/C [20]: 44.7%
viability, T/C [21]: 51.3%
viability, T/C [22]: 70.6%
viability, T/C [23]: 71.3%
viability, T/C [24]: 92.5%
viability, T/C [25]: 74.8%
viability, T/C [26]: 48.1%
viability, T/C [27]: 41.1%
viability, T/C [28]: 95.4%
viability, T/C [29]: 78.2%
viability, T/C [30]: 79%
viability, T/C [31]: 76.2%
viability, T/C [32]: 45.2%
viability, T/C [33]: 54.3%
viability, T/C [34]: 85.3%
viability, T/C [35]: 82.4%
viability, T/C [36]: 82.6%

CCc1cc2c(N3CCc4c(cc(Cn5ccnc5)cc4-c4cn(C)nc4C(F)(F)F)C3=O)cc(C)nc2c(OC)n1 + Cc1cccc(N(C)C(=O)C2C(O)CCN2c2nc(C)cc(C(F)(F)F)c2C#N)c1
IC50 (second compound 0.0316 µM): > 10 µM
IC50 (second compound 0.1 µM): > 10 µM
IC50 (second compound 0.316 µM): > 10 µM
IC50 (second compound 1 µM): > 10 µM
IC50 (second compound 3.16 µM): > 10 µM
IC50 (second compound 10 µM): > 10 µM
viability, T/C [1]: 78.4%
viability, T/C [2]: 73.7%
viability, T/C [3]: 93.1%
viability, T/C [4]: 99.6%
viability, T/C [5]: 104%
viability, T/C [6]: 98%
viability, T/C [7]: 84.6%
viability, T/C [8]: 83.5%
viability, T/C [9]: 92.2%
viability, T/C [10]: 88.7%
viability, T/C [11]: 101%
viability, T/C [12]: 119%
viability, T/C [13]: 91.8%
viability, T/C [14]: 88.7%
viability, T/C [15]: 81.2%
viability, T/C [16]: 94.9%
viability, T/C [17]: 104%
viability, T/C [18]: 94.4%
viability, T/C [19]: 84.5%
viability, T/C [20]: 82.7%
viability, T/C [21]: 86.6%
viability, T/C [22]: 82.8%
viability, T/C [23]: 93.8%
viability, T/C [24]: 93.5%
viability, T/C [25]: 86.3%
viability, T/C [26]: 85.8%
viability, T/C [27]: 92.4%
viability, T/C [28]: 91.6%
viability, T/C [29]: 99.8%
viability, T/C [30]: 90.6%
viability, T/C [31]: 88.9%
viability, T/C [32]: 88.5%
viability, T/C [33]: 93.9%
viability, T/C [34]: 78.2%
viability, T/C [35]: 95.8%
viability, T/C [36]: 94.8%

COc1cc2cc(C(=O)CCC(=O)O)sc2cc1OC + Cc1cccc(N(C)C(=O)C2C(O)CCN2c2nc(C)cc(C(F)(F)F)c2C#N)c1
IC50 (second compound 0.0316 µM): > 10 µM
IC50 (second compound 0.1 µM): > 10 µM
IC50 (second compound 0.316 µM): > 10 µM
IC50 (second compound 1 µM): > 10 µM
IC50 (second compound 3.16 µM): > 10 µM
IC50 (second compound 10 µM): > 10 µM
viability, T/C [1]: 95.6%
viability, T/C [2]: 106%
viability, T/C [3]: 98.6%
viability, T/C [4]: 90.5%
viability, T/C [5]: 85.4%
viability, T/C [6]: 103%
viability, T/C [7]: 101%
viability, T/C [8]: 91.1%
viability, T/C [9]: 82.6%
viability, T/C [10]: 101%
viability, T/C [11]: 75.5%
viability, T/C [12]: 121%
viability, T/C [13]: 116%
viability, T/C [14]: 90.3%
viability, T/C [15]: 91.8%
viability, T/C [16]: 93.4%
viability, T/C [17]: 93.7%
viability, T/C [18]: 116%
viability, T/C [19]: 94.9%
viability, T/C [20]: 113%
viability, T/C [21]: 98.2%
viability, T/C [22]: 80.3%
viability, T/C [23]: 87.9%
viability, T/C [24]: 117%
viability, T/C [25]: 107%
viability, T/C [26]: 101%
viability, T/C [27]: 109%
viability, T/C [28]: 93.1%
viability, T/C [29]: 85.7%
viability, T/C [30]: 121%
viability, T/C [31]: 88.6%
viability, T/C [32]: 93%
viability, T/C [33]: 103%
viability, T/C [34]: 75.2%
viability, T/C [35]: 79.6%
viability, T/C [36]: 112%
